Test results taken from patent US20240350434A1, “METHODS FOR TREATING MAJOR DEPRESSIVE DISORDER AND TREATMENT-RESISTANT DEPRESSION” (iX Biopharma Limited, priority 2020, published 2024).
Values joined by “and” are separate entries in the source; they are usually repeats but may differ in a detail not shown here. Equal entries are not always repeated.

Assays:
NMDA receptors = details: cited from earlier work
[1] = Open label two way randomized crossover pharmacokinetic / absolute bioavailability study, SL ketamine wafer 25 mg vs 10 mg i.v. infusion; details: for clearance: CL, clearance following i.v. administration; for bioavailability: other: sublingual, F; for half-life: median (min-max in text) of eight healthy volunteers; for extrapolated portion of the AUC(0,∞): min-max
Experimental: The study was of open label two way randomized, crossover design in eight healthy male volunteers who all gave written informed consent. Each participant received either a single 10 mg i.v. dose as a constant rate 30 min infusion or a 25 mg SL dose of ketamine in two treatment periods with a 7 day washout. Both the SL and i.v. doses, and the duration of the i.v. infusion were chosen to ensure adequate characterization of the plasma concentration-time profiles and good quality estimates of pharmacokinetic (PK) variables for both routes of administration. […] The sequence of the two formulations was according to a computer-generated randomization code.
The SL wafer formulation was a freeze dried solid dispersion of racemic ketamine hydrochloride in a porous matrix using lactose as a filling agent. Prior to administration of the wafer the sublingual space was rinsed with 3 ml of water after which the wafer was placed sublingually by a member of the study staff. The participants were instructed to avoid chewing or swallowing of the wafer within 5 min of its placement. For i.v. administration, commercially available ketamine (Ketalar®) was diluted to 30 ml in saline and administered over 30 min using a volumetrically controlled syringe driver. The infusion line was primed prior to start of the infusion.
Pharmacokinetic blood sampling and clinical assessment of local tolerability and safety were carried out for 24 h following both dosing occasions.
Key inclusion criteria were healthy adult males aged 18-65 years with a BMI 19-30 kg m^−2 in good general health including mental health as assessed by the Symptom Checklist-90-R (SCL-90-R®), a screening instrument which evaluates a broad range of psychological problems and symptoms of psychopathology. Pharmacokinetic blood samples (5 ml), were taken following both i.v. and SL administration at predose 5, 10, 15, 30, 35 and 45 min, and at 1.0, 1.5, 2.0, 2.5, 3.0, 4.0, 6.0, 8.0,12 and 24 h post-dose.
Whole blood was drawn into prechilled lithium heparin tubes and remained on ice post-sample collection until centrifugation. Samples were centrifuged at 1800 g for 10 min in a refrigerated centrifuge at 4° C. Plasma was decanted and frozen at-80° C.
Safety laboratory testing (biochemistry, haematology and urinalysis) was performed predose and at hour 24 post-dose administration in each period. Quantification of the plasma concentrations of racemic ketamine was performed using a validated HPLC method with u.v. detection, a lower limit of quantification (LLOQ) of 2 ng ml^−1 and <20% bias and imprecision.
Standard non-compartmental methods using the PK Solver plug-in for Microsoft
Excel were used to derive pharmacokinetic variables, except for Cmax, Tmax and Tlast, which were taken as observations from the plasma concentration-time profile of each participant. Actual times were used when reporting Tmax. The terminal rate constant (λz) was estimated by log-linear regression, of the slope of the natural log plasma concentration vs. time curve where λz=−1×slope. The linear regression in the terminal phase used the last three to six data points. The terminal t1/2 was calculated as t1/2=ln(2)/λz.
The area under the plasma concentration time curve from time zero to the last quantifiable concentration (AUC(0,tlast)) was obtained using the linear trapezoidal method and extrapolated to infinity to obtain the total area, AUC(0,∞), with Clast/λz, where Clast is the last quantifiable plasma concentration.

[2] = tested on: treatment-resistant major depressed patients; details: cited from earlier work
[3] = sublingually administered ketamine; cited from earlier work
[4] = Clinical assessment of local tolerability and safety in the crossover study; assay type: in vivo, human
Experimental: To assess the local tolerability profile of the SL formulation, modified Likert scales (0-10) were recorded at 5, 10, 15, 30 and 45 min and 1 h post-dose administration at various time points for both the SL and i.v. formulation: • Mucosal irritation • Burning sensation • Bitterness • Nausea • Residual grittiness in the mouth
Safety assessments included scheduled adverse event probes, spontaneous adverse event (AE) reporting, physical examination, routine laboratory investigations, ECGs and vital sign evaluation.
Vital signs (including systolic and diastolic blood pres-sure, pulse, respiratory rate and body temperature) were performed predose and at hours 0.5, 1, 2, 4, 6, 8, 12 and 24 h post-dose. Pulse oximetry was recorded predose and continuously for the first 3 h post-dose administration

[5] = cited from earlier work
[6] = tested on: mouse tests of antidepressant efficacy; details: up to a 30-fold range of doses, multiple mouse tests; cited from earlier work
[7] = individual subjects, 10 mg as 30 min i.v. infusion
[8] = individual subjects, 25 mg sublingually as a wafer
[9] = i.v. infusion, treatment-resistant major depressed patients
[10] = both routes (10 mg i.v., 25 mg SL)

CN[C@]1(c2ccccc2Cl)CCCCC1=O [S enantiomer, (S)-ketamine]
potency relative to R enantiomer (times more potent) (NMDA receptors; in humans in vivo): approximately 3 times

CNC1(c2ccccc2Cl)CCCCC1=O (racemic) [RS ketamine, ketamine]
Cmax, peak plasma concentration (i.v.) ([1]; Gmean of eight healthy volunteers, 10 mg as 30 min i.v. infusion): 128.1 ng/ml^−1
Cmax, peak plasma concentration (SL) ([1]; Gmean of eight healthy volunteers, 25 mg sublingually as a wafer): 71.1 ng/ml^−1
first quantifiable ketamine plasma concentrations observed at ([1]; all participants, both administration routes (i.v. and SL), first post-dose sample): 5 min
AUC(0-inf) ([1]; human, plasma, 25 mg, AUC(0,∞) (SL), individual subjects, 25 mg sublingually as a wafer): 204 ng·h/mL
AUC(0-inf) ([1]; human, plasma, iv, 10 mg, AUC(0,∞) (i.v.), individual subjects, 10 mg as 30 min i.v. infusion): 270 ng·h/mL
clearance ([1]; human, plasma, iv, 10 mg, individual subjects, 10 mg as 30 min i.v. infusion): 997 mL/min
bioavailability ([1]; human, plasma, 25 mg, individual subjects, 25 mg SL wafer vs 10 mg i.v., dose adjusted AUC(0,∞)): 30%
AUC(0,∞) (i.v.) [1, 7]: 289.2 ng·h/mL and 299.4 ng·h/mL and 261.0 ng·h/mL and 167.2 ng·h/mL and 282.7 ng·h/mL and 243.2 ng·h/mL and 254.8 ng·h/mL
CL, clearance following i.v. administration [1, 7]: 37.0 L/h and 34.6 L/h and 33.4 L/h and 36.3 L/h and 35.4 L/h and 41.1 L/h and 39.3 L/h
Vz, apparent volume of distribution following i.v. administration [1, 7]: 253 L and 300 L and 164 L and 385 L and 375 L and 126 L and 158 L and 283 L
Cmax, peak plasma concentration (i.v.) ([1]; individual subjects, 10 mg as 30 min i.v. infusion, healthy volunteers): 124.2 ng/ml^−1 and 120.4 ng/ml^−1 and 101.9 ng/ml^−1 and 83.2 ng/ml^−1 and 81.1 ng/ml^−1 and 226.7 ng/ml^−1 and 166.3 ng/ml^−1 and 160.3 ng/ml^−1
F, bioavailability ([1]; individual subjects, 25 mg SL wafer vs 10 mg i.v., dose adjusted AUC(0,∞)): 23% and 38% and 28% and 27%
AUC(0,∞) (SL) [1, 8]: 171.9 ng·h/mL and 211.3 ng·h/mL and 166.1 ng·h/mL and 151.6 ng·h/mL and 202.9 ng·h/mL and 162.5 ng·h/mL and 134.3 ng·h/mL
t1/2, terminal half-life (SL) [1, 8]: 5.5 h and 3.5 h and 2.3 h and 4.6 h and 5.1 h and 2.9 h and 1.8 h and 3.2 h
Cmax, peak plasma concentration (SL) ([1]; individual subjects, 25 mg sublingually as a wafer, healthy volunteers): 60.2 ng/ml^−1 and 50.0 ng/ml^−1 and 75.1 ng/ml^−1 and 51.8 ng/ml^−1 and 61.2 ng/ml^−1 and 88.8 ng/ml^−1 and 128.3 ng/ml^−1 and 76.7 ng/ml^−1
AUC(0-inf) ([1]; male, human, plasma, 25 mg, AUC(0,∞) (SL), Gmean of eight healthy volunteers, 25 mg sublingually as a wafer): 185 ng·h/mL
half-life ([1]; male, human, plasma, 25 mg, t1/2, terminal half-life (SL), 25 mg sublingually as a wafer): 3.4 h
AUC(0-inf) ([1]; male, human, plasma, iv, 10 mg, AUC(0,∞) (i.v.), Gmean of eight healthy volunteers, 10 mg as 30 min i.v. infusion): 255 ng·h/mL
clearance ([1]; male, human, plasma, iv, 10 mg, Gmean of eight healthy volunteers, 10 mg as 30 min i.v. infusion): 653 mL/min
Vd ([1]; male, human, plasma, iv, 10 mg, Vz, apparent volume of distribution following i.v. administration, Gmean of eight healthy volunteers, 10 mg as 30 min i.v. infusion): 237 L
half-life ([1]; male, human, plasma, iv, 10 mg, t1/2, terminal half-life (i.v.), 10 mg as 30 min i.v. infusion): 4.5 h
bioavailability ([1]; male, human, plasma, 25 mg, median (lower, upper 90% CI limit in text) of eight healthy volunteers, 25 mg SL wafer vs 10 mg i.v.): 29%
extrapolated portion of the AUC(0,∞) ([1]; SL dosing): 2-9%
extrapolated portion of the AUC(0,∞) ([1]; i.v. dosing): 3-7%
treatment of non-melancholic or anxious depression patients as measured by MADRS ([2]; 6 repeated IV doses 0.5 mg/kg, Wang et al): effectively treated
patients who maintained response for at least 7 days [2, 9]: 35%
time to manifestation of antidepressant effects post-infusion [2, 9]: ≤ 2 h
anti-depressive effects as measured by MADRS ([2]; single IV dose 0.5 mg/kg, Zarate et al): caused anti-depressive effects
efficacy for the treatment of depression, comparison with esketamine ([2]; single dose IV 0.5 mg/kg, Bahji et al meta-analysis): more efficacious than intransal esketamine
bioavailability values reported in the literature [3]: 24-32.2%
onset of adverse events ([4]; 10 mg i.v.): 6 to 22 min
onset of adverse events ([4]; 25 mg SL dosing): 5 to 18 min
adverse events terrible taste in mouth, blurred vision, decreased sensation in arm and dizziness, number of each ([4]; SL): one
duration of adverse events [4, 10]: less than 1 h
serious adverse events [4, 10]: no serious adverse events
severity of adverse events [4, 10]: mild
local and systemic tolerability ([4]; both routes of administration): very good
adverse events thought to be related to treatment, number reported ([4]; both routes, eight volunteers): Nineteen
adverse events body feels heavy, dry mouth and visual disturbance, number of each ([4]; i.v.): one
duration of action as an anaesthetic ([5]; depending on dose): approximately 30 minutes
terminal half-life ([5]; racemic drug): approximately 3 hours

CN[C@@]1(c2ccccc2Cl)CCCCC1=O [(R)-ketamine]
antidepressant efficacy compared with (S)-ketamine [6]: superior to (S)-ketamine

NC1(c2ccccc2Cl)CCCCC1=O (centres unmarked) [norketamine]
potency as NMDA antagonists relative to parent molecules (times less) (NMDA receptors): 5-8 times
